According to publication PMC6968712, “SPA: a peptide antagonist that acts as a cell-penetrating peptide for drug delivery” (Drug Delivery, 2019):
Where a SMILES comes first, the peptide text is derived from it. Where no end group is shown, it is not given here. [ ]: non-standard residue; d: D form.

How the values were obtained:
CHO cells [1] = experiment: Flow cytometry assay of cellular uptake; assay type: cell-based; settings: 1 h
Method: CHO cells were treated with 10 μM FITC labeled peptides for 1 h, and then the cells were harvested and finally resuspended in PBS after washing twice with PBS. The fluorescence of cells was analyzed on a FACS Caliber. To explore the uptake mechanism of SPA, CHO cells were preincubated at 4 °C and then treated with 10 μM FITC-labeled SPA at 4 °C or 37 °C for 1 h. In experiments with chloroquine, CHO cells were incubated with FITC-labeled SPA and 100 μM chloroquine at 37 °C for 1 h. In experiments with endocytosis inhibitor, cells were pretreated with 10 μg/mL chlorpromazine, 50 μM amiloride or 5 mM methyl-β-cyclodextrin at 37 °C for 0.5 h and then treated with 10 μM FITC-labeled SPA for 1 h. Cells were harvested and analyzed by a FACS Caliber (BD).

[2] = RP-HPLC retention time as measure of peptide hydrophobicity; assay type: physicochemical; settings: Table S1; chromatographic, C18 (Waters XBridge, 4.6*250 mm), linear gradient 5–95% acetonitrile in 0.1% trifluoroacetic acid within 30 min, 1 mL/min
Method: Purity analysis was checked by analytical RP-HPLC (Waters), and the peptides were eluted using a liner gradient of 5–95% acetonitrile in 0.1% trifluoroacetic acid at a flow rate of 1 mL/min within 30 min on a C18 column (Waters XBridge Columns, 10 μM, 4.6*250 mm). The retention time of each peptide was determined when the peak was at its maximum height.

trypsin = experiment: Enzymatic stability toward trypsin; assay type: in vitro ADME; settings: 15 μL 10 mM peptide in 285 μL trypsin solution (10 μg/mL), 37 °C, after incubation for 360 min as printed, RP-HPLC, triplicate
Method: The enzymatic stability of SPA toward trypsin and mice serum was determined following a procedure reported in our previous study (Song et al., [2013]). A portion of 15 μL peptide stock solution (10 mM) was added to 285 μL trypsin solution (10 μg/mL) or 100% serum. […] A portion of 40 μL aliquots were diluted with 80 μL water/acetonitrile (60:40 v/v) containing 1% TFA and analyzed by RP-HPLC (Waters). The peptides were eluted using a liner gradient of 5–95% acetonitrile in 0.1% trifluoroacetic acid at a flow rate of 1 mL/min within 30 min on a C18 column (Waters XBridge Columns, 10 μM, 4.6*250 mm). The remaining full-length peptide concentration was normalized with respect to the initial concentration.

[3] = Enzymatic stability in serum; assay type: in vitro ADME; settings: 15 μL 10 mM peptide in 285 μL 100% mice serum, 37 °C, 0–3 h, RP-HPLC, triplicate
Method: The enzymatic stability of SPA toward trypsin and mice serum was determined following a procedure reported in our previous study (Song et al., [2013]). A portion of 15 μL peptide stock solution (10 mM) was added to 285 μL trypsin solution (10 μg/mL) or 100% serum. Incubations were carried out at 37 °C for 0, 0.5, 1, 2 and 3 h in triplicate. A portion of 40 μL aliquots were diluted with 80 μL water/acetonitrile (60:40 v/v) containing 1% TFA and analyzed by RP-HPLC (Waters). The peptides were eluted using a liner gradient of 5–95% acetonitrile in 0.1% trifluoroacetic acid at a flow rate of 1 mL/min within 30 min on a C18 column (Waters XBridge Columns, 10 μM, 4.6*250 mm). The remaining full-length peptide concentration was normalized with respect to the initial concentration.

CHO cells [4] = experiment: LDH leakage assay; assay type: cell-based; settings: 1 h, 100% = 0.2% Triton X-100
Method: The LDH leakage was measured using the Cytotoxicity Detection Kit (Roche). CHO cells were seeded at 1 × 10^4 cells/well in 96-well plate 24 h before treatment. After treatment with SPA at various concentrations for 1 h, 40 μL medium was transferred to a 96-well plate and incubated for 15 min with 40 μL reaction mixture, followed by 20 μL stop solution. […] was measured using microplate reader (Thermo scientific) at 490 nm. Untreated cells were defined as no leakage and 100% leakage was defined as total LDH release by lysing cells in 0.2% Triton X-100.

Erythrocytes = experiment: Hemolysis assay; assay type: cell-based; settings: mice erythrocytes, even at 200 μM, 1 h, 37 °C
Method: Erythrocytes were obtained from freshly collected mice blood and resuspended in PBS to 4% (V/V). After 100 μL the erythrocyte suspension being seeded in 96-well plate, the cells were incubated with 100 μL peptides solution at different concentrations for 1 h at 37 °C. The plates were centrifuged at 1000 g for 10 min and the released hemoglobin was determined using microplate reader (Thermo scientific) at 450 nm. PBS and 0.1% Triton X-100 were used as agents for 0 and 100% hemolysis, respectively.

CHO cells [5] = experiment: MTT antiproliferative assay of SPA-CPT conjugate; assay type: cell-based; settings: treated 1 h, washed, cultured 72 h
Method: CHO, MDA-MB-231and U251 cells were seeded at 5 × 10^3 cells/well in 96-well plates 24 h before treatment, respectively. […] After washing with medium to remove the remaining agents, the cells were cultured for 72 h and the antiproliferative effects of the relevant agents were determined by the MTT assay.

CHO cells [6] = experiment: MTT cytotoxicity assay of SPA (24 h); assay type: cell-based; settings: various concentrations
Method: Cells were treated with SPA at various concentrations for 24 h. The cytotoxicity of SPA was determined by MTT assay. The absorbance was determined using microplate reader (Thermo scientific) at 570 nm.

FITC-AHX-rPKPwQwFwLL-NH2 [FITC-SPA, SPA labeled with FITC at the N-terminus via an aminohexanoic acid spacer]
mean fluorescence on cotreatment with chloroquine (CHO cells [1]; 10 μM FITC-labeled SPA with 100 μM chloroquine, 37 °C): significantly increased
retention time [2]: 21.2 min

CC(C)C[C@H](NC(=O)[C@H](CC(C)C)NC(=O)[C@@H](Cc1c[nH]c2ccccc12)NC(=O)[C@H](Cc1ccccc1)NC(=O)[C@@H](Cc1c[nH]c2ccccc12)NC(=O)[C@H](CCC(N)=O)NC(=O)[C@@H](Cc1c[nH]c2ccccc12)NC(=O)[C@@H]1CCCN1C(=O)[C@H](CCCCN)NC(=O)[C@@H]1CCCN1C(=O)[C@H](N)CCCN=C(N)N)C(N)=O [SPA, [D-Arg^1, D-Trp^5,7,9, Leu^11]Substance P] (H-[dR]PKP[dW]Q[dW]F[dW]LL-NH2)
stability against trypsin (remaining full-length peptide) (trypsin): not hydrolyzed
stability in serum (remaining full-length peptide) [3]: significantly greater stability in serum than L-SPA
LDH leakage (CHO cells [4]; 160 μM): 35%
hemolytic activity (Erythrocytes): low hemolytic activity
cytotoxicity / antiproliferative effect (MTT) (CHO cells [5]): no notable cytotoxicity
cytotoxicity (MTT) (CHO cells [6]): low cytotoxicity

CC[C@H](C)[C@H](NC(=O)CN)C(=O)NCC(=O)N[C@@H](C)C(=O)N[C@H](C(=O)N[C@@H](CC(C)C)C(=O)N[C@@H](CCCCN)C(=O)N[C@H](C(=O)N[C@@H](CC(C)C)C(=O)N[C@H](C(=O)N[C@H](C(=O)NCC(=O)N[C@@H](CC(C)C)C(=O)N1CCC[C@H]1C(=O)N[C@@H](C)C(=O)N[C@@H](CC(C)C)C(=O)N[C@H](C(=O)N[C@@H](CO)C(=O)N[C@@H](Cc1c[nH]c2ccccc12)C(=O)N[C@H](C(=O)N[C@@H](CCCCN)C(=O)N[C@@H](CCCNC(=N)N)C(=O)N[C@@H](CCCCN)C(=O)N[C@@H](CCCNC(=N)N)C(=O)N[C@@H](CCC(N)=O)C(=O)N[C@@H](CCC(N)=O)C(N)=O)[C@@H](C)CC)[C@@H](C)CC)[C@@H](C)O)[C@@H](C)O)C(C)C)C(C)C [melittin, reference compound]
LDH leakage (CHO cells [4]; 50 μM (positive control)): ~100%

RPKPWQWFWLL-NH2 [L-SPA]
stability against trypsin (remaining full-length peptide) (trypsin): almost completely degraded
stability in serum (remaining full-length peptide) [3]: SPA exhibited significantly greater stability in serum than L-SPA

FITC-AHX-YGRKKRRQRRR-NH2 [FITC-TAT, FITC-labeled cell-penetrating peptide TAT used as uptake comparator, reference compound]
cellular uptake efficiency (mean fluorescence intensity) (CHO cells [1]; 10 μM FITC labeled peptides, flow cytometry): cellular uptake efficiency of SPA was lower than that of TAT
retention time [2]: 16.0 min
